From ChEMBL document CHEMBL5058646 (2022)

What was measured:
[1] = target: BMP-2-inducible protein kinase (Homo sapiens) (UniProt Q9NSY1); experiment: BMP2K SGC Tm panel (DSF); settings: Compound concentration 20.0 uM
[2] = target: Cytoplasmic tyrosine-protein kinase BMX (Homo sapiens) (UniProt P51813); experiment: BMX SGC Tm panel (DSF); settings: Compound concentration 20.0 uM
[3] = target: Cyclin-dependent kinase 2 (Homo sapiens) (UniProt P24941); experiment: CDK2 SGC Tm panel (DSF); settings: Compound concentration 20.0 uM
[4] = target: Serine/threonine-protein kinase Chk2 (Homo sapiens) (UniProt O96017); experiment: CHEK2 SGC Tm panel (DSF); settings: Compound concentration 20.0 uM
[5] = target: Serine/threonine-protein kinase DCLK1 (Homo sapiens) (UniProt O15075); experiment: DCAMKL1 SGC Tm panel (DSF); settings: Compound concentration 20.0 uM
[6] = target: Myotonin-protein kinase (Homo sapiens) (UniProt Q09013); experiment: DMPK1 SGC Tm panel (DSF); settings: Compound concentration 20.0 uM
[7] = target: Dual specificity tyrosine-phosphorylation-regulated kinase 2 (Homo sapiens) (UniProt Q92630); experiment: DYRK2 SGC Tm panel (DSF); settings: Compound concentration 20.0 uM
[8] = target: Ephrin type-A receptor 4 (Homo sapiens) (UniProt P54764); experiment: EPHA4 SGC Tm panel (DSF); settings: Compound concentration 20.0 uM
[9] = target: Vascular endothelial growth factor receptor 1 (Homo sapiens) (UniProt P17948); experiment: FLT1 SGC Tm panel (DSF); settings: Compound concentration 20.0 uM
[10] = target: G protein-coupled receptor kinase 5 (Homo sapiens) (UniProt P34947); experiment: GPRK5 SGC Tm panel (DSF); settings: Compound concentration 20.0 uM
[11] = target: Homeodomain-interacting protein kinase 2 (Homo sapiens) (UniProt Q9H2X6); experiment: HIPK2 SGC Tm panel (DSF); settings: Compound concentration 20.0 uM
[12] = target: Maternal embryonic leucine zipper kinase (Homo sapiens) (UniProt Q14680); experiment: MELK SGC Tm panel (DSF); settings: Compound concentration 20.0 uM
[13] = target: Serine/threonine-protein kinase 26 (Homo sapiens) (UniProt Q9P289); experiment: MST4 SGC Tm panel (DSF); settings: Compound concentration 20.0 uM
[14] = target: Cyclin-dependent kinase 16 (Homo sapiens) (UniProt Q00536); experiment: PCTK1 SGC Tm panel (DSF); settings: Compound concentration 20.0 uM
[15] = target: Serine/threonine-protein kinase 10 (Homo sapiens) (UniProt O94804); experiment: STK10 SGC Tm panel (DSF); settings: Compound concentration 20.0 uM
[16] = target: Aurora kinase A (Homo sapiens) (UniProt O14965); experiment: STK6 SGC Tm panel (DSF); settings: Compound concentration 20.0 uM
[17] = target: Transcription initiation factor TFIID subunit 1 (Homo sapiens) (UniProt P21675); experiment: TAF1 SGC Tm panel (DSF); settings: Compound concentration 20.0 uM
[18] = target: Lymphokine-activated killer T-cell-originated protein kinase (Homo sapiens) (UniProt Q96KB5); experiment: TOPK SGC Tm panel (DSF); settings: Compound concentration 20.0 uM
[19] = target: Dual specificity protein kinase TTK (Homo sapiens) (UniProt P33981); experiment: TTK SGC Tm panel (DSF); settings: Compound concentration 20.0 uM
[20] = target: Sodium-dependent noradrenaline transporter (Homo sapiens) (UniProt P23975); settings: Compound concentration 10.0 uM
[21] = target: Histamine H2 receptor (Homo sapiens) (UniProt P25021); settings: Compound concentration 10.0 uM
[22] = target: Muscarinic acetylcholine receptor M3 (Homo sapiens) (UniProt P20309); settings: Compound concentration 10.0 uM
[23] = target: B-cell lymphoma 6 protein (Homo sapiens, UniProt P41182); settings: SUD4, Compound concentration 1.0 uM
[24] = target: Transcription regulator protein BACH2 (Homo sapiens) (UniProt Q9BYV9); settings: SUD4, Compound concentration 1.0 uM
[25] = target: Zinc finger and BTB domain-containing protein 17 (Homo sapiens) (UniProt Q13105); settings: SUD4, Compound concentration 1.0 uM
[26] = target: T1, Zinc finger and BTB domain-containing protein 10 (Homo sapiens) (UniProt Q96DT7); settings: SUD4, Compound concentration 1.0 uM
T1 sequence (whole entry): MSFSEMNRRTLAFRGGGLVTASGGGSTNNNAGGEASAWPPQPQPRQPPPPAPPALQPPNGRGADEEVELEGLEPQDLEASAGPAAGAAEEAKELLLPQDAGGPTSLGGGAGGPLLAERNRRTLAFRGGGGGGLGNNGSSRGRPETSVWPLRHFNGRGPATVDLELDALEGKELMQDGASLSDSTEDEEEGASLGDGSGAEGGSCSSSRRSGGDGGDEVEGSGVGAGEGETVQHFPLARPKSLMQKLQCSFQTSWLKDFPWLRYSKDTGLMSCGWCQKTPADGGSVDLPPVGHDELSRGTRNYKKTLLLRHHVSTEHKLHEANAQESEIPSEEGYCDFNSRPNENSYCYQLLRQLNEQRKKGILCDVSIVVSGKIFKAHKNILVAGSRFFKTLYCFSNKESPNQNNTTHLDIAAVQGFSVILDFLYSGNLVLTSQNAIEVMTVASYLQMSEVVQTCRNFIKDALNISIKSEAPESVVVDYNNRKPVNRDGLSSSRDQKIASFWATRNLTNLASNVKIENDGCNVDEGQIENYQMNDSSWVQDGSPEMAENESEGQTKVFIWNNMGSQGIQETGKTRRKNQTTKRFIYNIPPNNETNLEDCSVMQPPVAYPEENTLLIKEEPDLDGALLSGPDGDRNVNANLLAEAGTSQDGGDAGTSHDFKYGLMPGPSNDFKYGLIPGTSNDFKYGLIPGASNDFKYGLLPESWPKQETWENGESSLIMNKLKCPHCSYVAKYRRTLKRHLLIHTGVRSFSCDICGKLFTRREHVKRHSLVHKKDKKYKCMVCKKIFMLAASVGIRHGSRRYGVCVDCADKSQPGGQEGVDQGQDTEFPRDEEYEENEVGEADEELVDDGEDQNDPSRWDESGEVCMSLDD

[27] = target: Protein archease (Homo sapiens) (UniProt Q8IWT0); settings: SUD4, Compound concentration 1.0 uM
[28] = target: T1, Zinc finger and BTB domain-containing protein 10 (Homo sapiens); settings: OCI-Ly1, Compound concentration 1.0 uM

Cytoplasmic tyrosine-protein kinase BMX (Homo sapiens), sequence (P51813 whole entry): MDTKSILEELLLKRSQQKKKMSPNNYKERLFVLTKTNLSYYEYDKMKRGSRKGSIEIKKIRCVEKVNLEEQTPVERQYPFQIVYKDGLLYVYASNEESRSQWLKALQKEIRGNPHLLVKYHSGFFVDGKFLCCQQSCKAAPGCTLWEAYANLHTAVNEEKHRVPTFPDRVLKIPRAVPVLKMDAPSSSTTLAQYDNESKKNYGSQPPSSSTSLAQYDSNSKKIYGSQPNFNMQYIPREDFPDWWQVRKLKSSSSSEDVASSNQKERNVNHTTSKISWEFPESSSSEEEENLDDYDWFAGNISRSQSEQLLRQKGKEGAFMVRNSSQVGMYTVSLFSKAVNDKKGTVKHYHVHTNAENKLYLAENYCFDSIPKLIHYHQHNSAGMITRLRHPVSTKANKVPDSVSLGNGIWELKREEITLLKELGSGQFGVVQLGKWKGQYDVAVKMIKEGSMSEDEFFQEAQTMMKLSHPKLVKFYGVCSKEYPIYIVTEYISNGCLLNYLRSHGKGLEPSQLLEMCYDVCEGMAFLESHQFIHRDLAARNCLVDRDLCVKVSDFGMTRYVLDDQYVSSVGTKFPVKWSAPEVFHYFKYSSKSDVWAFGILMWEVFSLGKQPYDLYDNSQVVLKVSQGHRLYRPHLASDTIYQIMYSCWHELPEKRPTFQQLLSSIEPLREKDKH
Serine/threonine-protein kinase 10 (Homo sapiens), sequence (O94804 whole entry, looked up): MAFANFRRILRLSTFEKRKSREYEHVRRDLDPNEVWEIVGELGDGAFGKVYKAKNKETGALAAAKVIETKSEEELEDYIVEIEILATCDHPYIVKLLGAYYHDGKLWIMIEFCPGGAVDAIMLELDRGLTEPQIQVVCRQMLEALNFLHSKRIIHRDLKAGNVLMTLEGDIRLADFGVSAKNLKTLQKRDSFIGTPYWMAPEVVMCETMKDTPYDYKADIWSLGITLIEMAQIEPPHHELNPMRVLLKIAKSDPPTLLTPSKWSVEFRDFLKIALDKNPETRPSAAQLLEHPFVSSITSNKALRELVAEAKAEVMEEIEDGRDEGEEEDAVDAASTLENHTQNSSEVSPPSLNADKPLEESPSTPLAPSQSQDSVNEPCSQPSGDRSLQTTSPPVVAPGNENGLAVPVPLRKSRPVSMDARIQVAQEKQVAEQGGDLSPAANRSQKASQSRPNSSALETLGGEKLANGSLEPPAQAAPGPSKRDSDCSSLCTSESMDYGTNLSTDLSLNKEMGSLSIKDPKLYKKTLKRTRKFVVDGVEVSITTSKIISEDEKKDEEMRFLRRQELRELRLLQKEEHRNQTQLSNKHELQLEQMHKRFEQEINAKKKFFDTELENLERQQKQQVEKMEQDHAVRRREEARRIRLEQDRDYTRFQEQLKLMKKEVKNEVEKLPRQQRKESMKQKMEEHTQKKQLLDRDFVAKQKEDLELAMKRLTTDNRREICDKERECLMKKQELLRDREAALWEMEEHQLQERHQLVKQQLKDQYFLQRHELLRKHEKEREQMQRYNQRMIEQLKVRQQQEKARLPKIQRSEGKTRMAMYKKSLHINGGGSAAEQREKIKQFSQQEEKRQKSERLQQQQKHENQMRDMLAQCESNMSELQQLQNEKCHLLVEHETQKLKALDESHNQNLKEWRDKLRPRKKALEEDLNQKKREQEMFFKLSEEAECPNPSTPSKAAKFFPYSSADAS
Transcription regulator protein BACH2 (Homo sapiens), sequence (Q9BYV9 whole entry, the tested form may be a part): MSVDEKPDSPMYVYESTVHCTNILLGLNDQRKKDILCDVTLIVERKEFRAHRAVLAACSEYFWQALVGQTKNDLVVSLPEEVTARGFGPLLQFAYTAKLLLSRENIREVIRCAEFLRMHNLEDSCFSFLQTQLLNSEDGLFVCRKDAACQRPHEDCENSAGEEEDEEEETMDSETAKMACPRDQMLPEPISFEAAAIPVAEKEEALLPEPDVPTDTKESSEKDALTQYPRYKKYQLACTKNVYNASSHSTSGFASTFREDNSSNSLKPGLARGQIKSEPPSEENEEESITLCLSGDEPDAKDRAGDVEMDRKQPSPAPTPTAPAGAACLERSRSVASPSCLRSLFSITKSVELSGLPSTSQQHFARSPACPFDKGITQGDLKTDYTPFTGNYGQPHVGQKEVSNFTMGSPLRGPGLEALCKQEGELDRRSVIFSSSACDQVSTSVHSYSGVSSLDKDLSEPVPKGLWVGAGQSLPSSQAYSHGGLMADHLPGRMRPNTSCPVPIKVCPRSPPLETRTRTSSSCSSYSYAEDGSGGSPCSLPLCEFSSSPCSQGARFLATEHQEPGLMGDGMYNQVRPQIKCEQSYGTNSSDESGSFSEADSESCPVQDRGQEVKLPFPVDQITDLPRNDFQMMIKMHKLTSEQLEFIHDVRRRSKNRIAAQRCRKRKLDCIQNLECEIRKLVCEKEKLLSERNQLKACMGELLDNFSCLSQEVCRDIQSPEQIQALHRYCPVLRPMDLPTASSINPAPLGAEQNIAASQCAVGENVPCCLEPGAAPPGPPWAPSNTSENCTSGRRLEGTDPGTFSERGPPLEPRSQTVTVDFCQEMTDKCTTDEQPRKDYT
Myotonin-protein kinase (Homo sapiens), sequence (Q09013 whole entry): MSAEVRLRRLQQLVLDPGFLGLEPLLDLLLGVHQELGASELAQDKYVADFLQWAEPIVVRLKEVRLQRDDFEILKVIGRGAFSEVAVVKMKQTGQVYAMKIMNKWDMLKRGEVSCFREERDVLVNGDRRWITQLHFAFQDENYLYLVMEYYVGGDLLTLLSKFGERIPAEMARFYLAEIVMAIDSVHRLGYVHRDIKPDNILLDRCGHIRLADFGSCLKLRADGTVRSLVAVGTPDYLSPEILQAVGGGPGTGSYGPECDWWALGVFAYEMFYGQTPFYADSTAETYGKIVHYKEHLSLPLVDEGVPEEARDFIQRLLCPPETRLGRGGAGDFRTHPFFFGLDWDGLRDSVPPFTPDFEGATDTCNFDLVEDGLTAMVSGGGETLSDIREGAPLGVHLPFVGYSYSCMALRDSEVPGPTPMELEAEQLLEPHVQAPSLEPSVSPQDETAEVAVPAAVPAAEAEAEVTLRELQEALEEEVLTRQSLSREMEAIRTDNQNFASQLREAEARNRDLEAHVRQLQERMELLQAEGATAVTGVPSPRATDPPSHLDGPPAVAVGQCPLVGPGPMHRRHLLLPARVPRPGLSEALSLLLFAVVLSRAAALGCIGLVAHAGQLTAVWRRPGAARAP
Cyclin-dependent kinase 16 (Homo sapiens), sequence (Q00536 whole entry): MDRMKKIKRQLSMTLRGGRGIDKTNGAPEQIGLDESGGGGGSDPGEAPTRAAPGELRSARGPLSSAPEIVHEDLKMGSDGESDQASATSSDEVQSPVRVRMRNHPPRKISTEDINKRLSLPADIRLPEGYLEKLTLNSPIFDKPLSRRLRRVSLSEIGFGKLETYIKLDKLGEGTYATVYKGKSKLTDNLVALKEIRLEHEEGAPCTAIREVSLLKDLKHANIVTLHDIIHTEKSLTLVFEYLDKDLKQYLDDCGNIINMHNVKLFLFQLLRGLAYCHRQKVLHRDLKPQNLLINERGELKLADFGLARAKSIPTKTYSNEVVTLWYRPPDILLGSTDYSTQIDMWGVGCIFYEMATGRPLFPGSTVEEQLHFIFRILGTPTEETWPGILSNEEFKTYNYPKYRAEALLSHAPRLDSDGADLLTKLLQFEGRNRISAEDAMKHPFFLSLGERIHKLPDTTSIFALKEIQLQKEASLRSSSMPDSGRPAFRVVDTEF
Vascular endothelial growth factor receptor 1 (Homo sapiens), sequence (P17948 whole entry): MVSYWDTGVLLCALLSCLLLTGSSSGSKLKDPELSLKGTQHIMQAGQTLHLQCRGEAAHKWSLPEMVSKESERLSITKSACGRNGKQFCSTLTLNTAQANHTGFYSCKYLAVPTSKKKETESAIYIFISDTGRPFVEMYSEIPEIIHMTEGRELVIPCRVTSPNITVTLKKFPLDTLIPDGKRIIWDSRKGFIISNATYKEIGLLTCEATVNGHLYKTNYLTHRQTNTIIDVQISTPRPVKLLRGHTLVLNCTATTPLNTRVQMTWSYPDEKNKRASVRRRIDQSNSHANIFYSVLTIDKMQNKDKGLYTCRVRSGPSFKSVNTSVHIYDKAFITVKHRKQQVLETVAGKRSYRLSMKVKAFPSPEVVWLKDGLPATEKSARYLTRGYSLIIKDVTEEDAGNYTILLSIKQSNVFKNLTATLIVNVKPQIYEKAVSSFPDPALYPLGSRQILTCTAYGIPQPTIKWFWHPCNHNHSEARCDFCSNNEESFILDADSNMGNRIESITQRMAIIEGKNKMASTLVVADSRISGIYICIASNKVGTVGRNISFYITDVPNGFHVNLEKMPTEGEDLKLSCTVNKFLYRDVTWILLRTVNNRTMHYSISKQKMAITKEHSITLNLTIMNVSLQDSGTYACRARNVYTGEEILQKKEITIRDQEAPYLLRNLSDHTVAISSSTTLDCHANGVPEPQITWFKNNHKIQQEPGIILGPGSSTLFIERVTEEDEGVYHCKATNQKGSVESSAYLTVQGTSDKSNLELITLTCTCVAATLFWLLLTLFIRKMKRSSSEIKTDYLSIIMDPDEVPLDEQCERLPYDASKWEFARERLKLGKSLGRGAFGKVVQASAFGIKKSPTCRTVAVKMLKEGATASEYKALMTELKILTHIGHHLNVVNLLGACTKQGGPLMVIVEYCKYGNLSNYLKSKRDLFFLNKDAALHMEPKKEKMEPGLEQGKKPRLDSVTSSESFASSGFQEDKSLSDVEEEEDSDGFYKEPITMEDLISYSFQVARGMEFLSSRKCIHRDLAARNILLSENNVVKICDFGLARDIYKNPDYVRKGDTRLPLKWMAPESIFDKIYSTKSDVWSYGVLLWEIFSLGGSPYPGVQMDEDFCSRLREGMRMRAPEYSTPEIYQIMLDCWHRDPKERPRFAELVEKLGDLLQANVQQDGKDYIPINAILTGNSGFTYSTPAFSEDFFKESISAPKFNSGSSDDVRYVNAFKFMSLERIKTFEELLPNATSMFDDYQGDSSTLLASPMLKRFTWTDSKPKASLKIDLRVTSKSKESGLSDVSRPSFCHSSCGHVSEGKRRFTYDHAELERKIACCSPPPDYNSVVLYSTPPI

- Tm [1]: 43 °C
- Tm [2]: 48 °C
- Tm [3]: 46 °C
- Tm [4]: 44 °C
- Tm [5]: 42 °C
- Tm [6]: 50 °C
- Tm [7]: 46 °C
- Tm [8]: 54 °C
- Tm [9]: 45 °C
- Tm [10]: 40 °C
- Tm [11]: 43 °C
- Tm [12]: 41 °C
- Tm [13]: 44 °C
- Tm [14]: 52 °C
- Tm [15]: 42 °C
- Tm [16]: 45 °C
- Tm [17]: 56 °C
- Tm [19]: 46 °C
- inhibition [20]: 18.1%
- inhibition [21]: 43.7%
- inhibition [22]: 12%
- LogFC [23]: -1.2
- LogFC [24]: -0.0358
- LogFC [25]: 0.0294
- LogFC [26]: 0.121
- LogFC [27]: 0.0264
- LogFC [28]: 0.103
Compound: C[C@@H]1CN(c2ncc(Cl)c(Nc3ccc4c(c3)n(CCC(C)(C)O)c(=O)n4C)n2)C[C@H](C)C1(F)F
- Tm [18]: 43 °C
